The numbers were not newly measured in patent publication US20110146671A1, “PHARMACEUTICAL COMPOSITIONS AND METHODS OF DELIVERING THE SAME” (priority 2006, published 2011), which cites them from elsewhere.

The subject of this data set is patients with perennial allergic rhinitis. To be noted: 1% solution in normal saline, nasal wash every 48 hours for 4 weeks, versus placebo wash (normal saline only).

Structures are written as SMILES. Where a name gives a salt, the structure may show the parent alone.

With `CN[C@@H](C)[C@H](O)c1ccccc1` [ephedrine hydrochloride], the “peak nasal inspiratory flow rates” value is reported as “significant improvement” and the symptom scores result is given as “significant improvement”.
